System: HUVECs
Assay: Radiation-induced EndMT / stress fiber phenomic screening in HUVECs using the HCS system
Type: cell-based, human
Conditions: 48 hours, compared to IR (control) treated group; for Stress Fiber Pre-: HUVECs pre-treated 1 hour before radiation; for Stress Fiber Pre- / Stress Fiber Post-: Phalloidin; for Stress Fiber Post-: HUVECs treated after 10 Gy irradiation (3 hours)
Experimental: We established a phenomic screening platform to measure radiation-induced stress fibers and optimized the conditions for high-throughput screening using HUVEC cells to develop compounds targeting RIPF. […] 2-ME derivatives were prepared and their anti-fibrotic activities were tested in vitro [Table 3] and in vivo mouse models [FIGS. 1 and 2]. […] In this test, HUVECs were pre-treated with 2-ME derivatives at 1 hour before radiation and irradiated with 10 Gy. After 48 hours, HUVECs stained with Phalloidin and Hoechst to assess morphological changes Collagen type 1 (BD Collagen I, 354236, Thermo Fisher Scientific) was diluted in 70% ethanol, and then the collagen solution (400 μg/ml) was dispensed into each 384-well plate (6007550, Perkin Elmer, MA, US). After a 1-hour incubation at room temperature, the wells were rinsed twice with Dulbecco's phosphate-buffered saline. HUVECs were seeded at a density of 7×10^2 cells per well onto collagen-coated, 384-well plates and allowed to attach in complete growth media. Cells were then exposed to 10 Gy radiation at room temperature. After irradiation, the cells were incubated for an additional 3 hours. The compounds were tested at a final concentration of 10 μM in 0.5% dimethyl sulfoxide (DMSO; v/v) using an automated liquid handling system (Hummingbird, Analytik Jena, Jena, DE). After the 48-hour treatment, cells were fixed with 4% paraformaldehyde (w/v). The expression of actin filament was determined by incubation with 488-Phalloidin (1:100, MOP-[…], Thermo Fisher Scientific) using direct immunofluorescence staining. The nuclei were stained using Hoechst 33342 (1:1000, MOP-H3570, Thermo Fisher Scientific) at room temperature. For assay validation, a control run was performed. The low control consisted of three 384-well plates that contained irradiated cells, and the high control consisted of three 384-well plates that contained non-irradiated cells. For detecting and visualizing filamentous actin (F-actin) and nuclei, images were collected using an automated high-content imaging system with a 20× magnifying objective (Operetta, PerkinElmer). The acquired images were analyzed using an in-house software tool and Harmony 3.5.1® high-content imaging (Harmony, PerkinElmer) for segmentation of cells.

| Compound | Cell number (HUVECs, 10 Gy, 10 μM) | Stress Fiber Pre- (10 Gy) | Stress Fiber Post- (10 μM) |
| --- | --- | --- | --- |
| COc1cc2c(cc1O)CCC1C2CC[C@]2(C)C(=O)C=CC12 (stereo partly shown) [compound 2] | X (there were more than 10% changes in the cell number compare to IR (control) treated group) | – | – |
| CCC(=O)Oc1cc2c(cc1OC)C1CC[C@@]3(C)C(CC[C@@H]3O)C1CC2 (stereo partly shown) [compound 11] | – | O (there were stress fiber decreasing more than 20% compare to IR (control) treated group) | O (there were stress fiber decreasing more than 20% compare to IR (control) treated group) |
| CCC(=O)Oc1cc2c(cc1OC)C1CC[C@@]3(C)C(CC[C@@H]3OC(=O)CC)C1CC2 (stereo partly shown) [compound 6] | – | O (there were stress fiber decreasing more than 20% compare to IR (control) treated group) | – |
| COc1cc2c(cc1OC(C)=O)CCC1C2CC[C@@]2(C)C1CC[C@@H]2OC(C)=O (stereo partly shown) [compound 5] | – | O (there were stress fiber decreasing more than 20% compare to IR (control) treated group) | – |
| COc1cc2c(cc1OC(C)=O)CCC1C2CC[C@@]2(C)C1CC[C@@H]2O (stereo partly shown) [compound 10] | – | O (there were stress fiber decreasing more than 20% compare to IR (control) treated group) | O (there were stress fiber decreasing more than 20% compare to IR (control) treated group) |

From patent US12570685B2, “2-methoxyestradiol derivatives and medical uses thereof” (INSTITUT PASTEUR KOREA, priority 2019, dated 2026)
